Experiment: Solubility test
Assay type: physicochemical
Conditions: 25° C., ultrasonic waves, 5 mg, solvent added 50 μL by 50 μL
Protocol: The solubility of each of the sulfonylthiophene compounds synthesized in Examples 21 and 22 was determined under ultrasonic waves at 25° C. by adding, to aliquots (5 mg) of the sulfonylthiophene compound, tetrahydrofuran (THF), toluene, N,N-dimethylformamide (DMF), chloroform, ethyl acetate and ethanol 50 μL by 50 μL, respectively, until they were dissolved. The level of solubility was ranked in accordance with the following standards. • ⊚: Dissolved with 50 μL (concentration: 10%) • ◯: Dissolved with 100 μL (concentration: 5%) • Δ: Dissolved with 200 μL (concentration: 2.5%) • X: Not dissolved even by the addition of 500 μL (concentration: 1% or lower)

Row | Compound | level of solubility (Chloroform) | level of solubility (DMF) | level of solubility (Ethanol) | level of solubility (Ethyl acetate) | level of solubility (THF) | level of solubility (Toluene)
1 | CCCCCCCCS(=O)(=O)c1cc(-c2ccc(N(c3ccccc3)c3ccccc3)cc2)sc1-c1ccc(N(c2ccccc2)c2ccccc2)cc1 [Example 22, 4,4′-{3-(octane-1-sulfonyl)-thiophene-2,5-diyl}bis(N,N-diphenylaniline)] | ⊚ (Dissolved with 50 μL (concentration: 10%)) | ⊚ (Dissolved with 50 μL (concentration: 10%)) | X (Not dissolved even by the addition of 500 μL (concentration: 1% or lower)) | ⊚ (Dissolved with 50 μL (concentration: 10%)) | ⊚ (Dissolved with 50 μL (concentration: 10%)) | ⊚ (Dissolved with 50 μL (concentration: 10%))
2 | CCCCCCCCS(=O)(=O)c1c(-c2ccc(N(c3ccccc3)c3ccccc3)cc2)sc(-c2ccc(N(c3ccccc3)c3ccccc3)cc2)c1S(=O)(=O)CCCCCCCC [Example 21, 4,4′-{3,4-bis(octane-1-sulfonyl)-thiophene-2,5-diyl}bis(N,N-diphenylaniline)] | ⊚ (Dissolved with 50 μL (concentration: 10%)) | Δ (Dissolved with 200 μL (concentration: 2.5%)) | X (Not dissolved even by the addition of 500 μL (concentration: 1% or lower)) | ◯ (Dissolved with 100 μL (concentration: 5%)) | ◯ (Dissolved with 100 μL (concentration: 5%)) | ◯ (Dissolved with 100 μL (concentration: 5%))
